{
  "source": "paper PMC10967270",
  "about": "“Intrapulmonary and Systemic Pharmacokinetics of Colistin Following Nebulization of Low-Dose Colistimethate Sodium in Patients with Ventilator-Associated Pneumonia Caused by Carbapenem-Resistant Acinetobacter baumannii” (Antibiotics, 2024)",
  "assay": "Individual steady-state fAUC of colistin in ELF and plasma by clinical and microbiological outcome",
  "format": "in vivo, human",
  "conditions": "for fAUC, median (IQR): steady state over 24 h",
  "experimental": "We investigated whether the fAUC values of individual patients were associated with clinical or microbiological outcomes (Table 3). Using individual estimates of CL derived from the final PK model, we calculated the steady-state fAUC for each patient when a total of 3.75 MIU (=300 mg CMS = 112.5 mg CBA) was administered at 6 h intervals four times a day, using the formula AUC = DOSE/CL. The unbound fraction of colistin was assumed to be 10% [25] in the ELF based on the study by Gkoufa et al. and 34% in the plasma based on the study by Mohamed et al.. Gkoufa et al. presented concentration–time profiles of colistin predicted through simulations, assuming unbound fractions in the ELF of 0.01, 0.015, 0.05, and 0.099 [25]. From these, we approximated the unbound fraction at 0.1 by rounding 0.099. Meanwhile, Mohamed et al. determined the unbound fraction in plasma using equilibrium dialysis and reported a measured median (range) colistin unbound fraction of 34% (26–41%).\nThe PK/PD index for colistin is the area under the free colistin concentration-–time curve at steady state over 24 h divided by the pathogen minimum inhibitory concentration (fAUC/MIC). Since we were unable to obtain MIC values for A. baumannii, we evaluated the relationship between the PK and PD of colistin by comparing the fAUC of each patient in accordance with their clinical outcomes and microbiological outcomes. AUC was calculated by dividing the daily dose by patient, which was the individual post hoc Bayesian estimate of the developed PK model. […] The Wilcoxon rank-sum test was used to assess the relationships between fAUC and clinical outcomes, and the Kruskal–Wallis test was used to investigate the association between fAUC and microbiological outcomes. Additionally, leveraging typical PK parameter values from final models of ELF and plasma samples, we simulated concentration-time profiles of colistin for nebulization doses of 25 mg, 50 mg, 75 mg, 100 mg, and 125 mg in patients. Subsequently, we generated concentration–time plots and computed fAUC values.",
  "note": "Positions of bridges follow the written chain, without caps; N, C: chain ends. Non-standard residues stand in square brackets, D forms with d. Residues, ends and D or L forms follow the SMILES beside them. *: point of attachment. X1 = CC[C@H](C)CCCCC(=O)*; Dab = NCC[C@H](N)C(=O)O",
  "data": [
    {"compound": "CC[C@H](C)CCCCC(=O)N[C@@H](CCN)C(=O)N[C@H](C(=O)N[C@@H](CCN)C(=O)N[C@H]1CCNC(=O)[C@H]([C@@H](C)O)NC(=O)[C@H](CCN)NC(=O)[C@H](CCN)NC(=O)[C@H](CC(C)C)NC(=O)[C@@H](CC(C)C)NC(=O)[C@H](CCN)NC1=O)[C@@H](C)O", "note": "[colistin] (X1-[Dab]T[Dab][Dab][Dab][dL]L[Dab][Dab]T; lactam 4-C)", "values": [
      {"measurement": "fAUC, median (IQR)", "setting": "ELF, clinical outcome cured/improved, 16 patients, 3.75 MIU CMS/day at 6 h intervals, AUC = dose/CL, bioavailability 9%, unbound fraction 10%", "result": "36.7 (18.2–62.9) mg/L·h"},
      {"measurement": "fAUC, median (IQR)", "setting": "ELF, clinical outcome failed, 4 patients, 3.75 MIU CMS/day, unbound fraction 10%", "result": "31.7 (15.4–47.8) mg/L·h"},
      {"measurement": "fAUC, median (IQR)", "setting": "ELF, microbiological outcome eradicated, 8 patients, 3.75 MIU CMS/day", "result": "61.2 (12.5–111) mg/L·h"},
      {"measurement": "fAUC, median (IQR)", "setting": "ELF, microbiological outcome indeterminate, 2 patients, 3.75 MIU CMS/day", "result": "33.9 (30.0–37.9) mg/L·h"},
      {"measurement": "fAUC, median (IQR)", "setting": "ELF, microbiological outcome persistent, 10 patients, 3.75 MIU CMS/day", "result": "28.5 (17.7–50.5) mg/L·h"},
      {"measurement": "fAUC in ELF relative to plasma", "setting": "cured/improved group, mean values", "result": "approximately 27.2 times"},
      {"measurement": "fAUC in ELF relative to plasma", "setting": "cured/improved group, median values", "result": "approximately 26.2 times"},
      {"measurement": "fAUC in ELF relative to plasma", "setting": "eradicated group, mean values", "result": 39.8, "unit": "times"},
      {"measurement": "fAUC in ELF relative to plasma", "setting": "eradicated group, median values", "result": 26.0, "unit": "times"},
      {"measurement": "fAUC in ELF relative to plasma", "setting": "failed group, mean values", "result": "about 14.0 times"},
      {"measurement": "fAUC in ELF relative to plasma", "setting": "failed group, median values", "result": 15.9, "unit": "times"},
      {"measurement": "fAUC in ELF relative to plasma", "setting": "indeterminate group, mean values", "result": 6, "unit": "times"},
      {"measurement": "fAUC in ELF relative to plasma", "setting": "indeterminate group, median values", "result": 6, "unit": "times"},
      {"measurement": "ELF fAUC, cured/improved relative to treatment failure", "setting": "mean values", "result": "more than 2.25 times"},
      {"measurement": "ELF fAUC, eradicated relative to indeterminate group", "setting": "mean values", "result": 3.24, "unit": "times"},
      {"measurement": "ELF fAUC, eradicated relative to persistent group", "setting": "mean values", "result": 3.48, "unit": "times"},
      {"measurement": "ELF fAUC, cured/improved relative to treatment failure", "setting": "median values", "result": 1.16, "unit": "times"},
      {"measurement": "ELF fAUC, eradicated relative to indeterminate group", "setting": "median values", "result": 1.80, "unit": "times"},
      {"measurement": "ELF fAUC, eradicated relative to persistent group", "setting": "median values", "result": 2.15, "unit": "times"},
      {"measurement": "fAUC in ELF relative to plasma", "setting": "persistent group, mean values", "result": 18.8, "unit": "times"},
      {"measurement": "fAUC in ELF relative to plasma", "setting": "persistent group, median values", "result": 18.2, "unit": "times"},
      {"measurement": "fAUC, median (IQR)", "setting": "plasma, clinical outcome cured/improved, 16 patients, 3.75 MIU CMS/day, unbound fraction 34%", "result": "1.40 (0.752–3.74) mg/L·h"},
      {"measurement": "fAUC, median (IQR)", "setting": "plasma, clinical outcome failed, 4 patients, 3.75 MIU CMS/day, unbound fraction 34%", "result": "2.00 (1.87–2.38) mg/L·h"},
      {"measurement": "fAUC, median (IQR)", "setting": "plasma, microbiological outcome eradicated, 8 patients, 3.75 MIU CMS/day", "result": "2.36 (0.645–4.11) mg/L·h"},
      {"measurement": "fAUC, median (IQR)", "setting": "plasma, microbiological outcome indeterminate, 2 patients, 3.75 MIU CMS/day", "result": "5.96 (5.00–6.91) mg/L·h"},
      {"measurement": "fAUC, median (IQR)", "setting": "plasma, microbiological outcome persistent, 10 patients, 3.75 MIU CMS/day", "result": "1.56 (1.00–2.05) mg/L·h"}
    ]}
  ]
}
